For orientation: IC50 means the concentration that gives 50% inhibition. Lower therefore signals higher potency.

The values that follow come from BindingDB's records for doi:10.1021/jm0301787 (Roche Palo Alto, 2003).

The target of this test is Mitogen-activated protein kinase 14 (Homo sapiens, UniProt Q16539). As to the kind of experiment: In Vitro Kinase Assay. As to conditions: pH 7.4; 30 °C. As to the method:
Inhibition of human recombinant active p38alpha MAP kinase was tested by measuring the incorporation of 33P from gamma-[33P] ATP into myelin basic protein (MBP). The assay was performed in a 96-well microtiter plate. The incorporated radioactivity was measured in a Packard Topcount microplate scintillation counter. The 50% inhibitory value was calculated by fitting the data to the equation: fractional activity = 1/[I]/IC50 + 1.

Chain of Mitogen-activated protein kinase 14 (Q16539 whole entry): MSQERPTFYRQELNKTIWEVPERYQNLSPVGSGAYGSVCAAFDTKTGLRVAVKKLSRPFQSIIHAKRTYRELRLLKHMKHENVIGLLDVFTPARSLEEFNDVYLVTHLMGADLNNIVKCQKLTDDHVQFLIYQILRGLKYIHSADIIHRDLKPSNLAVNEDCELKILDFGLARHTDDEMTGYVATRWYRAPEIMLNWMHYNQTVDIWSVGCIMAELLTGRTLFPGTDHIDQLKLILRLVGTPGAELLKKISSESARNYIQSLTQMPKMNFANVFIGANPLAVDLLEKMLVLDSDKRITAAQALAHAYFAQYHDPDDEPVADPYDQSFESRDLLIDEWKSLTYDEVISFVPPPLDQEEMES

Compound `CC(CO)Nc1cc(-c2[nH]c3cccnc3c2-c2ccc(F)cc2)ccn1` (stereo unspecified) [2-({4-[3-(4-fluorophenyl)-1H-pyrrolo[3,2-b]pyridin-2-yl]pyridin-2-yl}amino)propan-1-ol] displayed an IC50 of 3 nM.
